Measured values: patent publication US5708007A, “2-(piperidin-4-yl, pyridin-4-yl and tetrahydropyridin-4-yl) benzofuran-7-ol and carbamate derivatives for treating memory dysfunction” (priority 1996, dated 1998)

Target: T1, Brain AChE (Rattus norvegicus, UniProt P37136)
T1 construct: corpora striata dissected free, weighed and homogenized in 19 volumes; from tissue; host or cells: corpora striata of male Wistar rats, crude homogenate in 0.05M phosphate buffer
T1 sequence (P37136 32-614): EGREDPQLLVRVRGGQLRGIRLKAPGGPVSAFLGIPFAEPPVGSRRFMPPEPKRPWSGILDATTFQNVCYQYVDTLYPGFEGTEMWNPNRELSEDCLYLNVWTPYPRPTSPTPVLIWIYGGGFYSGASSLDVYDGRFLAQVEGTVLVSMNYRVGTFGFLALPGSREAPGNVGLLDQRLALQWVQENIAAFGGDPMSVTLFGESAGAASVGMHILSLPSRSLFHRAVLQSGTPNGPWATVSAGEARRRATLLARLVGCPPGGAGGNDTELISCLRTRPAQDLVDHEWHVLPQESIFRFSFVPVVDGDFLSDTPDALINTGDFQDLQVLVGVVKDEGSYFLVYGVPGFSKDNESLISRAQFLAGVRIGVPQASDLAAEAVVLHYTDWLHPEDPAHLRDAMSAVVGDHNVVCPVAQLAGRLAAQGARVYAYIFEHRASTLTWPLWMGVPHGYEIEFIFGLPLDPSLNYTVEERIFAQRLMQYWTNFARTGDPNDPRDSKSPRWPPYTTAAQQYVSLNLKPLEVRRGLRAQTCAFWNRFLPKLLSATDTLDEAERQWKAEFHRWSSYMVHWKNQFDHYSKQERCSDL
Test: biochemical
Design: species or system rat (male Wistar)
Settings: rat striatum homogenate; acetylthiocholine 5 mM final; pH 7.2; 10 min preincubation at 37° C.; log-probit analysis; read-out: Inhibitory Concentration (μM) Brain AChE
Excerpt: Cholinesterases are found throughout the body, both in the brain and in serum. However, only brain acetylcholinesterase (AChE) distribution is correlated with central cholinergic innervation. […] We have determined in vitro inhibition of acetylcholinesterase activity in rat striatum according to the method described below.
In Vitro Inhibition of Acetylcholinesterase Activity in Rat Striatum
The method described below was used in this invention for assaying anticholinesterase activity. This is a modification of the method of Ellman et al., Biochem. Pharmacol. 7, 88 (1961).
1. 0.05M Phosphate buffer, pH 7.2
(c) add (a) to (b) until pH reaches 7.2
4. A 2 mM stock solution of the test drug is made up in a suitable solvent and brought to volume with 0.5 mM DTNB (reagent 3). Drugs are serially diluted (1:10) such that the final concentration (in cuvette) is 10^-4 M and screened for activity. If active, IC50 values are determined from the inhibitory activity of subsequent concentrations.
Enzyme activity is measured with the Beckman DU-50 spectrophotometer. This method can be used for IC50 determinations and for measuring kinetic constants.
Reagents are added to the blank and sample cuvettes as follows:
This program also calculates the rate of absorbance change for each cuvette.
Substrate concentration is 10 mM diluted 1:2 in assay yielding final concentration of 5 mM.
IC50 values are calculated from log-probit analysis.

SMILES	IC50 [µM]
CN(C)C(=O)Oc1cccc2cc(C3CCNCC3)oc12 [2-(4-PIPERIDINYL)BENZOFURAN-7-YL DIMETHYL CARBAMATE HEMIFUMARATE]	1.9
CNC(=O)Oc1cccc2cc(C3CCN(C)CC3)oc12 [2-(1-METHYL-4-PIPERIDINYL)-BENZOFURAN-7-YL METHYL CARBAMATE]	1.8
CNC(=O)Oc1cccc2cc(-c3ccncc3)oc12 [2-(4-PYRIDINYL)BENZOFURAN-7-YL METHYL CARBAMATE]	1.2
